≈ marks a conversion by molar mass, not a printed value. Where a SMILES comes first, the peptide text is derived from it. Bridges are numbered along the chain shown (N, C = ends).
How the values were obtained:
[1] = system: Micrococcus luteus; test: Antimicrobial activity against Micrococcus luteus after 24 hrs by microdilution technique in absence of NaCl; type: functional
[2] = system: Staphylococcus aureus; test: Antimicrobial activity against Staphylococcus aureus after 24 hrs by microdilution technique in absence of NaCl; type: functional
[3] = system: Escherichia coli; test: Antimicrobial activity against Escherichia coli after 24 hrs by microdilution technique in absence of NaCl; type: functional
[4] = system: Pseudomonas aeruginosa; test: Antimicrobial activity against Pseudomonas aeruginosa after 24 hrs by microdilution technique in absence of NaCl; type: functional
[5] = system: Erythrocyte; test: Hemolytic activity in human red blood cells after 1 hrs; type: functional
[6] = system: Micrococcus luteus; test: Antimicrobial activity against Micrococcus luteus after 24 hrs by microdilution technique in high salt condition; type: functional
[7] = system: Staphylococcus aureus; test: Antimicrobial activity against Staphylococcus aureus after 24 hrs by microdilution technique in high salt condition; type: functional
[8] = system: Escherichia coli; test: Antimicrobial activity against Escherichia coli after 24 hrs by microdilution technique in high salt condition; type: functional
[9] = system: Pseudomonas aeruginosa; test: Antimicrobial activity against Pseudomonas aeruginosa after 24 hrs by microdilution technique in high salt condition; type: functional
[10] = system: Candida albicans; test: Antimicrobial activity against Candida albicans after 24 hrs by microdilution technique in high salt condition; type: functional
[11] = Effect on leakage from large unilamellar vesicles containing phosphatidylglycerol/phosphatidyl choline assessed as release of entrapped dye at 50 uM; type: physicochemical
[12] = system: Candida albicans; test: Antimicrobial activity against Candida albicans after 24 hrs by microdilution technique in absence of NaCl; type: functional

Row | Structure (SMILES) | MIC [1] | MIC [2] | MIC [3] | MIC [4] | MIC [6] | MIC [7] | MIC [8] | MIC [9] | MIC [10] | Activity [11] | MIC [12] | HC50 [5]
1 | CC(C)C[C@H](NC(=O)[C@@H]1CSSC[C@H](NC(=O)[C@H](C)NC(=O)[C@H](C)NC(=O)[C@@H](N)CC(=O)O)C(=O)N[C@@H](C)C(=O)N[C@@H](C)C(=O)N[C@@H](Cc2cnc[nH]2)C(=O)N1)C(=O)N[C@@H](Cc1c[nH]c2ccccc12)C(=O)N[C@@H](CCCNC(=N)N)C(N)=O (H-DAACAAHCLWR-NH2; disulfide 4-8) | > 200 µg/mL | > 200 µg/mL | > 200 µg/mL | > 200 µg/mL | > 200 µg/mL | > 200 µg/mL | > 200 µg/mL | > 200 µg/mL | > 200 µg/mL |  |  | >200 µg/mL
2 | CC(C)C[C@H](NC(=O)[C@@H]1CSSC[C@H](NC(=O)[C@H](C)NC(=O)[C@H](C)NC(=O)[C@@H](N)CC(=O)O)C(=O)N[C@@H](C)C(=O)N[C@@H](C)C(=O)N[C@@H](CCCCN)C(=O)N1)C(=O)N[C@@H](Cc1c[nH]c2ccccc12)C(=O)N[C@@H](CCCNC(=N)N)C(N)=O (H-DAACAAKCLWR-NH2; disulfide 4-8) | > 200 µg/mL | > 200 µg/mL | > 200 µg/mL | > 200 µg/mL | > 200 µg/mL | > 200 µg/mL | > 200 µg/mL | > 200 µg/mL | > 200 µg/mL |  |  | >200 µg/mL
3 | CC(C)C[C@H](NC(=O)[C@H](CS)NC(=O)[C@H](CCCCN)NC(=O)[C@H](C)NC(=O)[C@H](C)NC(=O)[C@H](CS)NC(=O)[C@H](C)NC(=O)[C@H](C)NC(=O)[C@@H](N)CCCCN)C(=O)N[C@@H](Cc1c[nH]c2ccccc12)C(=O)N[C@@H](CCCNC(=N)N)C(N)=O (H-KAACAAKCLWR-NH2) | 25 µg/mL (≈ 20.5 µM) | 50 µg/mL (≈ 41 µM) | 50 µg/mL (≈ 41 µM) | 100 µg/mL (≈ 82 µM) | 200 µg/mL | 100 µg/mL | > 200 µg/mL | > 200 µg/mL | > 200 µg/mL |  |  | >200 µg/mL
4 | CC(C)C[C@H](NC(=O)[C@@H]1CSSC[C@H](NC(=O)[C@H](C)NC(=O)[C@H](C)NC(=O)[C@@H](N)CCCCN)C(=O)N[C@@H](C)C(=O)N[C@@H](C)C(=O)N[C@@H](CCCCN)C(=O)N1)C(=O)N[C@@H](Cc1c[nH]c2ccccc12)C(=O)N[C@@H](CCCNC(=N)N)C(N)=O (H-KAACAAKCLWR-NH2; disulfide 4-8) | 50 µg/mL (≈ 41.1 µM) | 50 µg/mL (≈ 41.1 µM) | 50 µg/mL (≈ 41.1 µM) | > 200 µg/mL | 200 µg/mL | > 200 µg/mL | 200 µg/mL | > 200 µg/mL | > 200 µg/mL |  |  | >200 µg/mL

Second part, led by results:

Row | MIC [1] | MIC [2] | MIC [3] | MIC [4] | MIC [6] | MIC [7] | MIC [8] | MIC [9] | MIC [10] | Activity [11] | MIC [12] | Structure (SMILES) | HC50 [5]
5 |  |  |  |  |  |  |  |  |  | 70% |  | CC(C)C[C@H](NC(=O)[C@H](CS)NC(=O)[C@H](Cc1cnc[nH]1)NC(=O)[C@H](C)NC(=O)[C@H](C)NC(=O)[C@H](CS)NC(=O)[C@H](C)NC(=O)[C@H](C)NC(=O)[C@@H](N)CCCCN)C(=O)N[C@@H](Cc1c[nH]c2ccccc12)C(=O)N[C@@H](CCCNC(=N)N)C(N)=O (H-KAACAAHCLWR-NH2) [listing 1 of 2 here] | 
6 | > 200 µg/mL | > 200 µg/mL | > 200 µg/mL | > 200 µg/mL | > 200 µg/mL | > 200 µg/mL | > 200 µg/mL | > 200 µg/mL | > 200 µg/mL |  | > 200 µg/mL | CC(C)C[C@H](NC(=O)[C@H](CS)NC(=O)[C@H](Cc1cnc[nH]1)NC(=O)[C@H](C)NC(=O)[C@H](C)NC(=O)[C@H](CS)NC(=O)[C@H](C)NC(=O)[C@H](C)NC(=O)[C@@H](N)CC(=O)O)C(=O)N[C@@H](Cc1c[nH]c2ccccc12)C(=O)N[C@@H](CCCNC(=N)N)C(N)=O (H-DAACAAHCLWR-NH2) | >200 µg/mL
7 | 25 µg/mL | 50 µg/mL | 50 µg/mL | 100 µg/mL | > 200 µg/mL | > 200 µg/mL | > 200 µg/mL | > 200 µg/mL | > 200 µg/mL |  |  | CC(C)C[C@H](NC(=O)[C@H](CS)NC(=O)[C@H](Cc1cnc[nH]1)NC(=O)[C@H](C)NC(=O)[C@H](C)NC(=O)[C@H](CS)NC(=O)[C@H](C)NC(=O)[C@H](C)NC(=O)[C@@H](N)CCCCN)C(=O)N[C@@H](Cc1c[nH]c2ccccc12)C(=O)N[C@@H](CCCNC(=N)N)C(N)=O (H-KAACAAHCLWR-NH2) [listing 2 of 2 here] | >200 µg/mL
8 | 100 µg/mL | 100 µg/mL | > 200 µg/mL | > 200 µg/mL | 100 µg/mL | 100 µg/mL | > 200 µg/mL | > 200 µg/mL | > 200 µg/mL | 20% |  | CC(C)C[C@H](NC(=O)[C@@H]1CSSC[C@H](NC(=O)[C@H](C)NC(=O)[C@H](C)NC(=O)[C@@H](N)CCCCN)C(=O)N[C@@H](C)C(=O)N[C@@H](C)C(=O)N[C@@H](Cc2cnc[nH]2)C(=O)N1)C(=O)N[C@@H](Cc1c[nH]c2ccccc12)C(=O)N[C@@H](CCCNC(=N)N)C(N)=O (H-KAACAAHCLWR-NH2; disulfide 4-8) | >200 µg/mL
9 | 200 µg/mL (≈ 166 µM) | 200 µg/mL (≈ 166 µM) | 200 µg/mL (≈ 166 µM) | > 200 µg/mL | > 200 µg/mL | > 200 µg/mL | > 200 µg/mL | > 200 µg/mL | > 200 µg/mL |  |  | CC(C)C[C@H](NC(=O)[C@H](CS)NC(=O)[C@H](CCCCN)NC(=O)[C@H](C)NC(=O)[C@H](C)NC(=O)[C@H](CS)NC(=O)[C@H](C)NC(=O)[C@H](C)NC(=O)[C@@H](N)CC(=O)O)C(=O)N[C@@H](Cc1c[nH]c2ccccc12)C(=O)N[C@@H](CCCNC(=N)N)C(N)=O (H-DAACAAKCLWR-NH2) | >200 µg/mL

Source: ChEMBL document CHEMBL1157136, “Design and synthesis of cyclic disulfide-bonded antibacterial peptides on the basis of the alpha helical domain of Tenecin 1, an insect defensin” (Bioorg Med Chem, 2008)
